Experimental data published in patent publication US10301320B2, “Compositions and methods of modulating 15-PGDH activity” (CASE WESTERN RESERVE UNIVERSITY, priority 2012, dated 2019).
Entries after “also recorded” stand apart in the source; their conditions may differ.

How the values were obtained:
[1] = Hepatocyte stability; type: in vitro ADME; settings: result in words
Procedure: (§1) Time to inhibition refers to the time needed to inhibit the generation of NADH by 15-PGDH from the moment with drug is added into the reaction mix. Delta™ refers to the shift in melting temperature of recombinant 15-PGDH in the presence of drug (with cofactor NADH also present). Concentration of Full Cell Line Reporter Induction refers to the concentration of drug that needs to be added to reporter cell line to achieve maximal induction of the 15-PGDH-luciferase gene fusion reporter cassette, as measured by luciferase assays. Hepatocyte stability refers to the half-life of compound in the presence of hepatocytes in culture. Toxicity refers to the concentration of compound needed to decrease cell numbers in a cell culture assay.

[2] = test system: C57BL/6J and FVB mice; assay: Liver regeneration after partial hepatectomy; type: in vivo
[3] = test system: C57BL/6J mice; assay: Survival after 11 Gy irradiation and bone marrow allograft; type: in vivo
Excerpt: The experimental design is depicted in FIG. 50.
Under the conditions of the mouse colony during this study, control mice receiving 100,000-500,000 cells are all dead between days 4-13 of study. […] Such activity would be of particular utility in settings, such as transplantation with umbilical cord stem cells, in which donor cell numbers are limited.

[4] = test system: A549 cells; assay: Cellular toxicity on A549 cells (CellTiter-Glo, cell numbers); type: cell-based
Procedure: as §1
FIGS. 38(A-C) show assays of cellular toxicity on A549 cells at 24 hours of 15-PGDH inhibitors as assayed by CellTiter-Glo measurement.
FIGS. 84(A-C) show at left (84A) activity in lowering PGE2 levels in media of A549 cells that are stimulated to produce PGE2 by treatment with IL1-beta.

[5] = test system: 15-PGDH-luciferase fusion reporter in V9m, LS174T and V503 cell lines; assay: 15-PGDH-luciferase fusion gene reporter induction in three colon cancer cell lines (stated jointly); type: cell-based
[6] = test system: C57BL/6J mice; assay: Survival following acetaminophen (Tylenol) overdose; type: in vivo; settings: for Number of mice surviving: Table 10, first dose immediately after Tylenol;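 on all read-outs here: control mice received vehicle only, given once or twice per day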
[7] = test system: A549 cells; assay: PGE2 levels in medium of IL1-beta stimulated A549 cells; type: cell-based
[8] = test system: CD45.2 marked C57BL/6J donor marrow in lethally irradiated CD45.1 mice; assay: Competitive bone marrow transplant, chimerism; type: in vivo; settings: donor 5 mg/kg IP daily for 3 doses; weeks 12 and 16
Procedure: On day 3 mice were sacrificed, marrow flushed and mixed at a 1:1 ratio with vehicle treated CD45.1 marrow. 2 million whole BM cells were injected into the tail vein of lethally irradiated CD45.1 mice and percent chimerism measured via flow cytometry at weeks 8, 12, 16.

[9] = test system: 15-PGDH mRNA in colon cancer cell lines; assay: 15-PGDH mRNA levels by real-time PCR; type: cell-based
Excerpt: In these studies parental cell lines (not containing the 15-PGDH-luciferase reporter) are employed.

[10] = test system: FVB male mice; assay: Dextran sodium sulfate (DSS) induced colitis; type: in vivo

In the case of `CCCC[S+]([O-])c1sc2nc(-c3cccs3)cc(-c3ccccc3)c2c1N` (stereo not shown) [SW033291, 2-(butylsulfinyl)-4-phenyl-6-(thiophen-2-yl)thieno[2,3-b]pyridin-3-amine], the Hepatocyte stability [1] is reported as “Stable > couple hrs”, the “Hepatic mitosis, in words” value ([2]; C57BL/6J, 5 mg/kg IP daily) is reported as “significantly increased hepatic mitosis versus controls on days 3 and 4” and the “Serum ALT levels” value ([2]; one mouse, 5 mg/kg IP twice daily) is reported as “lower”. The “BrdU positive cells in liver, in words” value ([2]; post-operative day 2) was “clear increase in numbers of BrdU positive cells”, the “Survival of transplanted mice, in words” value ([3]; 5 mg/kg IP twice daily) was “promoted survival of mice receiving a bone marrow transplant” and the “Mouse survival (number of surviving mice)” value (shortened to “Mouse survival”) ([3]; 1 × 10^5 cells, Day 1) was 3. For the same molecule, the “Mouse survival” value ([3]; 1 × 10^5 cells, Day 2) was 3, the “Mouse survival” value ([3]; 1 × 10^5 cells, Day 3) was 3 and the “Mouse survival” value ([3]; 1 × 10^5 cells, Day 4) was 2. The “Mouse survival” value ([3]; 1 × 10^5 cells, Day 5) was 1, the “Mouse survival” value ([3]; 1 × 10^5 cells, Day 6) was 0 and the “Mouse survival” value ([3]; 2 × 10^5 cells, Day 1) was 3. For the same molecule, the “Mouse survival” value ([3]; 2 × 10^5 cells, Day 2) was 3, the “Mouse survival” value ([3]; 2 × 10^5 cells, Day 3) was 3 and the “Mouse survival” value ([3]; 2 × 10^5 cells, Day 4) was 3. The “Mouse survival” value ([3]; 2 × 10^5 cells, Day 5) was 3, the “Mouse survival” value ([3]; 2 × 10^5 cells, Day 6) was 2 and the “Mouse survival” value ([3]; 2 × 10^5 cells, Day 7) was 2. The “Mouse survival” value ([3]; 2 × 10^5 cells, Day 8) was 2, the “Mouse survival” value ([3]; 2 × 10^5 cells, Day 9) was 2 and the “Mouse survival” value ([3]; 2 × 10^5 cells, Day 10) was 2. For the same molecule, the “Mouse survival” value ([3]; 2 × 10^5 cells, Day 11) was 2, the “Mouse survival” value ([3]; 2 × 10^5 cells, Day 12) was 1 and the “Mouse survival” value ([3]; 2 × 10^5 cells, Day 13) was 0. For the same molecule, the “Mouse survival” value ([3]; 5 × 10^5 cells, Day 1) was 3, the “Mouse survival” value ([3]; 5 × 10^5 cells, Day 2) was 3 and the “Mouse survival” value ([3]; 5 × 10^5 cells, Day 3) was 3. The “Mouse survival” value ([3]; 5 × 10^5 cells, Day 4) was 3, the “Mouse survival” value ([3]; 5 × 10^5 cells, Day 5) was 3 and the “Mouse survival” value ([3]; 5 × 10^5 cells, Day 6) was 3. The “Mouse survival” value ([3]; 5 × 10^5 cells, Day 7) was 3, the “Mouse survival” value ([3]; 5 × 10^5 cells, Day 8) was 2 and the “Mouse survival” value ([3]; 5 × 10^5 cells, Day 9) was 2. For the same molecule, the “Mouse survival” value ([3]; 5 × 10^5 cells, Day 10) was 2, the “Mouse survival” value ([3]; 5 × 10^5 cells, Day 11) was 2 and the “Mouse survival” value ([3]; 5 × 10^5 cells, Day 12) was 2. For the same molecule, the “Mouse survival” value ([3]; 5 × 10^5 cells, Day 13) was 2, the “Mouse survival” value ([3]; 5 × 10^5 cells, Day 19) was 2 and the “Toxicity, CellTiter-Glo” value ([4]; 24 hours, up to 10 uM in FIG. 38) was “No effect on CellTitre-Glo levels”. For the same molecule, the Toxicity ([4]; concentration needed to decrease cell numbers in a cell culture assay) was greater than 10 µM, the “Induction of 15-PGDH-luciferase reporter, in words” value [5] was “increase luciferase activity” and the “Mice surviving at 120 hours” value ([6]; 5 mg/kg IP bid beginning 3 hours prior to acetaminophen, 6 doses) was 3 of 6. The “Mice surviving at 120 hours” value ([6]; 5 mg/kg IP bid beginning 48 hours prior to acetaminophen, 9 doses) was 10 of 12, the “Number of mice surviving” value ([6]; 1 dose daily, 16 hr) was 6 and the “Number of mice surviving” value ([6]; 1 dose daily, 24 hrs) was 6. For the same molecule, the “Number of mice surviving” value ([6]; 2 dose daily, 16 hr) was 6, the “Number of mice surviving” value ([6]; 2 dose daily, 24 hrs) was 6 and the “Number of mice surviving” value ([6]; 2 dose daily, 48 hrs) was 3. For the same molecule, the “Number of mice surviving” value ([6]; 2 dose daily, 64 hrs) was 3, the “Number of mice surviving” value ([6]; 2 dose daily, 72 hrs) was 3 and the “Number of mice surviving” value ([6]; 2 dose daily, 88 hr) was 3. For the same molecule, the “Number of mice surviving” value ([6]; 2 dose daily, 96 hr) was 3, the “Number of mice surviving” value ([6]; 2 dose daily, 112 hr) was 3 and the “Number of mice surviving” value ([6]; 2 dose daily, 120 hr) was 3. The “Survival (number of mice)” value ([6]; Table 11, bid beginning 48 hours prior to acetaminophen, 16 hr) was 12, the “Survival (number of mice)” value ([6]; Table 11, bid beginning 48 hours prior to acetaminophen, 24 hrs) was 12 and the “Survival (number of mice)” value ([6]; Table 11, bid beginning 48 hours prior to acetaminophen, 40 hrs) was 11. The “Survival (number of mice)” value ([6]; Table 11, bid beginning 48 hours prior to acetaminophen, 48 hrs) was 10, the “Survival (number of mice)” value ([6]; Table 11, bid beginning 48 hours prior to acetaminophen, 64 hrs) was 10 and the “Survival (number of mice)” value ([6]; Table 11, bid beginning 48 hours prior to acetaminophen, 72 hrs) was 10. For the same molecule, the “Survival (number of mice)” value ([6]; Table 11, bid beginning 48 hours prior to acetaminophen, 88 hr) was 10, the “Survival (number of mice)” value ([6]; Table 11, bid beginning 48 hours prior to acetaminophen, 96 hr) was 10 and the “Survival (number of mice)” value ([6]; Table 11, bid beginning 48 hours prior to acetaminophen, 112 hr) was 10. The “Survival (number of mice)” value ([6]; Table 11, bid beginning 48 hours prior to acetaminophen, 120 hr) was 10, the “Survival (number of mice)” value ([6]; Table 12, bid beginning 3 hours prior to acetaminophen, 16 hr) was 6 and the “Survival (number of mice)” value ([6]; Table 12, bid beginning 3 hours prior to acetaminophen, 24 hrs) was 5. For the same molecule, the “Survival (number of mice)” value ([6]; Table 12, bid beginning 3 hours prior to acetaminophen, 48 hrs) was 3, the “Survival (number of mice)” value ([6]; Table 12, bid beginning 3 hours prior to acetaminophen, 64 hrs) was 3 and the “Survival (number of mice)” value ([6]; Table 12, bid beginning 3 hours prior to acetaminophen, 72 hrs) was 3. The “Survival (number of mice)” value ([6]; Table 12, bid beginning 3 hours prior to acetaminophen, 88 hr) was 3, the “Survival (number of mice)” value ([6]; Table 12, bid beginning 3 hours prior to acetaminophen, 96 hr) was 3 and the “Survival (number of mice)” value ([6]; Table 12, bid beginning 3 hours prior to acetaminophen, 112 hr) was 3. For the same molecule, the “Survival (number of mice)” value ([6]; Table 12, bid beginning 3 hours prior to acetaminophen, 120 hr) was 3, the “PGE2 levels in the medium, ranking” value ([7]; 100 nM drug, 15-PGDH inhibitors) was “next highest level of PGE2” and the “Effect on PGE2 levels in medium, in words” value ([7]; IL1-beta stimulated A549 cells) was “clear inhibition of 15-PGDH activity”. For the same molecule, the PGE2 levels achieved ([7]; IL-1β 16 h, compound 8 h, highest level of titration) was 3000 pg/mL, the “Percent blood chimerism of CD45.2 marked cells” value [8] was “significantly increased” and the “15-PGDH mRNA levels” value ([9]; V503 cells) was “slight increase in 15-PGDH mRNA”. The “15-PGDH mRNA levels” value ([9]; treated colon cancer cell lines, real-time PCR) was “do not in general alter 15-PGDH mRNA levels”, the “Body weight versus control, in words” value ([10]; 5 mg/kg IP twice daily) was “greater weight at all time points; also recorded: greater body weight” and the Ulcer formation ([10]; colonoscopy days 8, 11, 15) was “prevents two-thirds of ulcer formation”. The “Colon length versus control, in words” value ([10]; day 22) was “greater colon lengths”.
